≈ marks a conversion by molar mass, not a printed value.

One assay concerns Escherichia coli. Nature of the assay: Antibacterial activity against Escherichia coli assessed as bacterial growth inhibition. The assay is classed as functional.
`COc1cc(OC)cc(-c2nn(CN3CCN(c4cc5c(cc4F)c(=O)c(C(=O)O)cn5[C@@H]4C[C@@H]4F)CC3)c(=S)n2-c2ccccc2)c1`: the minimum inhibitory concentration (MIC) is not above 0.04 µg/mL.
`COc1cc(-c2nn(CN3CCN(c4cc5c(cc4F)c(=O)c(C(=O)O)cn5[C@@H]4C[C@@H]4F)CC3)c(=S)n2-c2ccccc2)cc(OC)c1OC`: the minimum inhibitory concentration (MIC) was not above 0.04 µg/mL.
Still for that read-out and setting: with `COc1ccc(-c2nn(CN3CCN(c4cc5c(cc4F)c(=O)c(C(=O)O)cn5[C@@H]4C[C@@H]4F)CC3)c(=S)n2-c2ccccc2)cc1OC` the figure was not above 0.04 µg/mL.
Consider `O=C(O)c1cn([C@@H]2C[C@@H]2F)c2cc(N3CCN(Cn4nc(-c5ccccc5O)n(-c5ccccc5)c4=S)CC3)c(F)cc2c1=O`, for which the minimum inhibitory concentration (MIC) is not above 0.04 µg/mL.
Same read-out and setting: for `C[C@H]1COc2c(N3CCC4(CCN(C)C4)C3)c(F)cc3c(=O)c(C(=O)O)cn1c23` (some centres undefined) the value was 0.025 µg/mL (≈ 0.0623 µM); for `CC1(C)S[C@@H]2[C@H](NC(=O)[C@H](N)c3ccc(O)cc3)C(=O)N2[C@H]1C(=O)O` [AMOXICILLIN], 2 µg/mL (≈ 5.47 µM).
`CN1CCN(c2c(F)cc3c(=O)c(C(=O)O)cn4c3c2SCC4)CC1` [RUFLOXACIN]: the MIC came out at 0.25 µg/mL (≈ 0.688 µM).

A further assay has as its system Escherichia coli. Nature of the assay: Antibacterial activity against Escherichia coli NCDC 134 assessed as bacterial growth inhibition. In kind it is functional.
Turning to `O=C(CN1CCN(c2cc3c(cc2F)c(=O)c(C(=O)O)cn3C2CC2)CC1)Nc1nc2ccc([N+](=O)[O-])cc2s1`, the minimal inhibitory concentration (MIC) amounted to 6 µg/mL (≈ 10.6 µM).
Same read-out and setting: for `O=C(CN1CCN(c2cc3c(cc2F)c(=O)c(C(=O)O)cn3C2CC2)CC1)Nc1nc2ccc(Cl)cc2s1` the value was 6 µg/mL (≈ 10.8 µM); for `O=C(CN1CCN(c2cc3c(cc2F)c(=O)c(C(=O)O)cn3C2CC2)CC1)Nc1nc2c(Cl)ccc(Cl)c2s1`, 6 µg/mL (≈ 10.2 µM).
In the case of `O=C(N/N=C/c1ccc2c(c1)OCO2)c1cn(C2CC2)c2cc(N3CCNCC3)c(F)cc2c1=O`, the MIC is more than 64 µg/mL.
On the same count and under the same terms, with `O=C(N/N=C/c1ccc(F)cc1)c1cn(C2CC2)c2cc(N/N=C/c3ccc(F)cc3)c(F)cc2c1=O` the figure was more than 64 µg/mL.
Same read-out and setting: for `O=C(N/N=C/c1ccc2c(c1)OCO2)c1cn(C2CC2)c2cc(N/N=C/c3ccc4c(c3)OCO4)c(F)cc2c1=O` the value was more than 64 µg/mL.
The same measure, in the same setting: for `O=C(N/N=C/c1ccccc1O)c1cn(C2CC2)c2cc(N3CCNCC3)c(F)cc2c1=O` the value was more than 64 µg/mL; for `COc1ccc(/C=N/NC(=O)c2cn(C3CC3)c3cc(N/N=C/c4ccc(OC)c(O)c4)c(F)cc3c2=O)cc1O`, more than 64 µg/mL; for `COc1ccc(/C=N/NC(=O)c2cn(C3CC3)c3cc(N4CCNCC4)c(F)cc3c2=O)cc1O`, more than 64 µg/mL.
Take `O=C(N/N=C/c1ccccc1)c1cn(C2CC2)c2cc(N3CCNCC3)c(F)cc2c1=O`: the MIC is more than 64 µg/mL.
Consider `COc1ccc(/C=N/NC(=O)c2cn(C3CC3)c3cc(N/N=C/c4ccc(OC)cc4)c(F)cc3c2=O)cc1`, for which the MIC is more than 64 µg/mL.
On the same count and under the same terms, for `O=C(N/N=C/c1ccccc1O)c1cn(C2CC2)c2cc(N/N=C/c3ccccc3O)c(F)cc2c1=O` the value was more than 64 µg/mL; for `COc1ccc(/C=N/NC(=O)c2cn(C3CC3)c3cc(N4CCNCC4)c(F)cc3c2=O)cc1`, more than 64 µg/mL; for `O=C(N/N=C/c1ccccc1)c1cn(C2CC2)c2cc(N/N=C/c3ccccc3)c(F)cc2c1=O`, more than 64 µg/mL.
For the compound `COc1cc(/C=N/NC(=O)c2cn(C3CC3)c3cc(N4CCNCC4)c(F)cc3c2=O)cc(OC)c1OC`, the minimal inhibitory concentration (MIC) was more than 64 µg/mL.
For `O=C(N/N=C/c1ccc(F)cc1)c1cn(C2CC2)c2cc(N3CCNCC3)c(F)cc2c1=O`, the minimum inhibitory concentration (MIC) is more than 64 µg/mL.
Same read-out and setting: with `COc1cc(/C=N/NC(=O)c2cn(C3CC3)c3cc(N/N=C/c4cc(OC)c(OC)c(OC)c4)c(F)cc3c2=O)cc(OC)c1OC` the figure was more than 64 µg/mL.
The same measure, in the same setting: with `CCN(CC)Cc1cn(-c2cc3c(cc2F)c(=O)c(C(=O)NO)cn3C2CC2)nn1` the figure was more than 64 µg/mL; with `CC(C)NCc1cn(-c2cc3c(cc2F)c(=O)c(C(=O)NO)cn3C2CC2)nn1`, more than 64 µg/mL.
On the same count and under the same terms, with `Cc1ccc2nc(NC(=O)CN3CCN(c4cc5c(cc4F)c(=O)c(C(=O)O)cn5C4CC4)CC3)sc2c1` the figure was 6 µg/mL (≈ 11.2 µM); with `CN(C)Cc1cn(-c2cc3c(cc2F)c(=O)c(C(=O)NO)cn3C2CC2)nn1`, more than 64 µg/mL.
Turning to `CCn1cc(C(=O)O)c(=O)c2cc(F)c(N3CCN(CC(=O)Nc4nc5ccc(C)cc5s4)CC3)cc21`, the MIC is 6 µg/mL (≈ 11.5 µM).
On the same count and under the same terms, for `CCn1cc(C(=O)O)c(=O)c2cc(F)c(N3CCN(CC(=O)Nc4nc5c(Cl)ccc(Cl)c5s4)CC3)cc21` the value was 6 µg/mL (≈ 10.4 µM).
For the compound `O=C(N/N=C/c1ccc([N+](=O)[O-])cc1)c1cn(C2CC2)c2cc(N/N=C/c3ccc([N+](=O)[O-])cc3)c(F)cc2c1=O`, the MIC is more than 64 µg/mL.
Still for that read-out and setting: for `CCCN(CCC)Cc1cn(-c2cc3c(cc2F)c(=O)c(C(=O)NO)cn3C2CC2)nn1` the value was more than 64 µg/mL; for `CCn1cc(C(=O)O)c(=O)c2cc(F)c(N3CCN(CC(=O)Nc4nc5ccc(F)cc5s4)CC3)cc21`, 6 µg/mL (≈ 11.4 µM).
Same read-out and setting: with `CCn1cc(C(=O)O)c(=O)c2cc(F)c(N3CCN(CC(=O)Nc4nc5ccc([N+](=O)[O-])cc5s4)CC3)cc21` the figure was 6 µg/mL (≈ 10.8 µM); with `CCn1cc(C(=O)O)c(=O)c2cc(F)c(N3CCN(CC(=O)Nc4nc5ccc(Cl)cc5s4)CC3)cc21`, 6 µg/mL (≈ 11 µM); with `O=C(NO)c1cn(C2CC2)c2cc(-n3cc(CN4CCOCC4)nn3)c(F)cc2c1=O`, more than 64 µg/mL.
The same measure, in the same setting: with `O=C(CN1CCN(c2cc3c(cc2F)c(=O)c(C(=O)O)cn3C2CC2)CC1)Nc1nc2ccc(F)cc2s1` the figure was 6 µg/mL (≈ 11.1 µM).
In the case of `COc1c(N2CCN(CC(=O)Nc3nc4ccc(C)cc4s3)C(C)C2)c(F)cc2c(=O)c(C(=O)O)cn(C3CC3)c12` (centres undefined), the MIC worked out at 6 µg/mL (≈ 10.4 µM).
Still for that read-out and setting: with `O=C(N/N=C/c1ccc([N+](=O)[O-])cc1)c1cn(C2CC2)c2cc(N3CCNCC3)c(F)cc2c1=O` the figure was more than 64 µg/mL; with `COc1c(N2CCN(CC(=O)Nc3nc4c(Cl)ccc(Cl)c4s3)C(C)C2)c(F)cc2c(=O)c(C(=O)O)cn(C3CC3)c12` (centres undefined), 6 µg/mL (≈ 9.46 µM).
For the compound `COc1c(N2CCN(CC(=O)Nc3nc4ccc([N+](=O)[O-])cc4s3)C(C)C2)c(F)cc2c(=O)c(C(=O)O)cn(C3CC3)c12` (centres undefined), the MIC amounted to 6 µg/mL (≈ 9.83 µM).
Still for that read-out and setting: for `O=C(NO)c1cn(C2CC2)c2cc(-n3cc(CN4CCNCC4)nn3)c(F)cc2c1=O` the value was more than 64 µg/mL; for `COc1c(N2CCN(CC(=O)Nc3nc4ccc(F)cc4s3)C(C)C2)c(F)cc2c(=O)c(C(=O)O)cn(C3CC3)c12` (centres undefined), 6 µg/mL (≈ 10.3 µM).
The same measure, in the same setting: with `COc1c(N2CCN(CC(=O)Nc3nc4ccc(Cl)cc4s3)C(C)C2)c(F)cc2c(=O)c(C(=O)O)cn(C3CC3)c12` (centres undefined) the figure was 6 µg/mL (≈ 10 µM).

Another assay has as its system Escherichia coli. Description: Antibacterial activity against Escherichia coli NIHJ JC-2 assessed as bacterial growth inhibition. The assay is classed as functional.
Take `NC1CCN(c2cc3c(c(=O)c(C(=O)O)cn3C3CC3)c3[nH]cnc23)C1` (centres undefined): the MIC was 0.025 µg/mL (≈ 0.0707 µM).
Same read-out and setting: for `NCC1CCN(c2cc3c(c(=O)c(C(=O)O)cn3C3CC3)c3[nH]cnc23)C1` (centres undefined) the value was 0.025 µg/mL (≈ 0.068 µM); for `O=C(O)c1cn(C2CC2)c2cc(N3CCNCC3)c3nc[nH]c3c2c1=O`, 0.025 µg/mL (≈ 0.0707 µM); for `NC1CCN(c2c(F)c3c(c(=O)c(C(=O)O)cn3C3CC3)c3[nH]cnc23)C1` (centres undefined), 0.025 µg/mL (≈ 0.0673 µM).
The same measure, in the same setting: for `O=C(O)c1cn(C2CC2)c2c(Cl)c(N3CCNCC3)c3nc[nH]c3c2c1=O` the value was 0.025 µg/mL (≈ 0.0645 µM); for `CN1CCN(c2cc3c(c(=O)c(C(=O)O)cn3C3CC3)c3[nH]cnc23)CC1`, 0.025 µg/mL (≈ 0.068 µM); for `NCC1CCN(c2c(F)c3c(c(=O)c(C(=O)O)cn3C3CC3)c3[nH]cnc23)C1` (centres undefined), 0.025 µg/mL (≈ 0.0649 µM).
Consider `CN1CCN(c2c(Cl)c3c(c(=O)c(C(=O)O)cn3C3CC3)c3[nH]cnc23)CC1`, for which the minimum inhibitory concentration (MIC) was 0.025 µg/mL (≈ 0.0622 µM).
The same measure, in the same setting: with `CN1CCN(c2c(F)c3c(c(=O)c(C(=O)O)cn3C3CC3)c3[nH]cnc23)CC1` the figure was 0.025 µg/mL (≈ 0.0649 µM); with `O=C(O)c1cn(C2CC2)c2c(F)c(N3CCNCC3)c3nc[nH]c3c2c1=O`, 0.025 µg/mL (≈ 0.0673 µM).

By MIC is commonly meant the lowest concentration that inhibits growth of the organism.

The values above are taken from ChEMBL document CHEMBL5244219, “Recent developments of quinolone-based derivatives and their activities against Escherichia coli” (Eur J Med Chem, 2018).
